# According to patent US6358948B1 (American Home Products Corporation, priority 1999, dated 2002):
# Several values for one entry are separate records, joined by “and”; a condition that tells them apart may be missing. Identical values can stand only once.
# Test system: not given
# Assay: not given
# Details: not given
row,melting point,SMILES
1,125 to 127 °C,"CC1(C2CC2)NC(=O)Nc2ccc(-c3cccc(Cl)c3)cc21 (stereo not drawn) [Example 9, 6-(3-Chlorophenyl)-4-cyclopropyl-4-methyl-3,4-dihydro-1H-quinazolin-2-one]"
2,193 to 194 °C,"CN1C(=O)Nc2ccc(-c3cccc(Cl)c3)cc2C1(C)C1CC1 (stereo not drawn) [Example 10, 6-(3-Chlorophenyl)-4-cyclopropyl-3,4-dimethyl-3,4-dihydro-1H-quinazolin-2-one]"
3,211 to 215 °C,"CC1(C)CC(=O)Nc2ccc(-c3cccc(Cl)c3)cc21 [Example 11, 6-(3-Chloro-phenyl)-4,4-dimethyl-3,4-dihydro-1H-quinolin-2-one]"
4,144 to 146 °C,"CC1Nc2ccc(-c3cccc(Cl)c3)cc2C(C)(C)O1 (stereo not drawn) [Example 28, 6-(3-Chlorophenyl)-2,4,4-trimethyl-1,4-dihydro-2H-3,1-benzoxazine]"
5,108 to 109 °C,"CC1(C)OC(C(F)(F)F)Nc2ccc(-c3cccc(Cl)c3)cc21 (stereo not drawn) [Example 39, 6-(3-Chlorophenyl)-4,4-dimethyl-2-(trifluoromethyl)-1,4-dihydro-2H-3,1-benzoxazine]"
6,190 to 192 °C,"CC1(C)CC(=O)Nc2ccc(-c3cccc(F)c3)cc21 [Example 40, 6-(3-Fluorophenyl)-4,4-dimethyl-3,4-dihydroquinolin-2(1H)one]"
7,249 to 250 °C,"CC1(C)CC(=O)Nc2ccc(-c3cc(F)cc(C#N)c3)cc21 [Example 41, 3-(4,4-Dimethyl-2-oxo-1,2,3,4-tetrahydroquinolin-6-yl)-5-fluorobenzonitrile]"
8,197 to 198 °C,"CC1(C)CC(=S)Nc2ccc(-c3cccc(Cl)c3)cc21 [Example 43, 6-(3-Chlorophenyl)-4,4-dimethyl-3,4dihydroquinoline-2(1H)-thione]"
9,209 to 211 °C,"CC1(C)CC(=S)Nc2ccc(-c3cccc(F)c3)cc21 [Example 44, 6-(3-Fluorophenyl)-4,4-dimethyl-3,4-dihydroquinoline-2(1H)-thione]"

# The next lines start with the compound.
row,SMILES,melting point
1,"CC1Nc2ccc(-c3cc(F)cc(C#N)c3)cc2C(C)(C)O1 (stereo not drawn) [Example 14, 3-Fluoro-5-(2,4,4-trimethyl-1,4-dihydro-2H-3,1-benzoxazin-6-yl)benzonitrile]",163 to 164 °C
2,"CC1Nc2ccc(-c3csc(C#N)c3)cc2C(C)(C)O1 (stereo not drawn) [Example 15, 4-(2,4,4-Trimethyl-1,4-dihydro-2H-3,1-benzoxazin-6-yl)thiophene-2carbonitrile]",175 to 176 °C
3,"Cc1cc(C#N)sc1-c1ccc2c(c1)C(C)(C)OC(C)N2 (stereo not drawn) [Example 16, 4Methyl-5-(2,4,4-trimethyl-1,4-dihydro-2H-3,1-benzoxazin-6-yl)thiophene-2-carbonitrile]",145 to 146 °C
4,"C[C@@H]1Nc2ccc(-c3cc(F)cc(C#N)c3)cc2[C@](C)(c2ccccc2)O1 [Example 17, 3-[(2R,4S)-2,4-Dimethyl-4-phenyl-1,4-dihydro-2H-3,1-benzoxazin-6yl]-5-fluorobenzonitrile]",128 to 129 °C
5,"CC1OC(C)(C)c2cc(-c3ccc(C#N)n3C(=O)OC(C)(C)C)ccc2N1C(=O)OCC1c2ccccc2-c2ccccc21 (stereo not drawn) [Example 19, 9H-Fluoren-9-ylmethyl-6-[1-(tert-butoxycarbonyl)-5-cyano-1H-pyrrol-2-yl]-2,4,4-trimethyl-2H-3,1-benzoxazine-1(4H)-carboxylate]",135 to 136 °C
6,"CC1Nc2ccc(-c3ccc(C#N)[nH]3)cc2C(C)(C)O1 (stereo not drawn) [Example 20, 5-(2,4,4-Trimethyl-1,4-dihydro-2H-3,1-benzoxazin-6-yl)-1H-pyrrole-2-carbonitrile]",201 to 202 °C
7,"CC1OC(C)(C)c2cc(-c3ccc(C#N)n3C)ccc2N1C(=O)OCC1c2ccccc2-c2ccccc21 (stereo not drawn) [Example 21, 9H-Fluoren-9-ylmethyl 6-(5-cyano-1-methyl-1H-pyrrol-2-yl)-2,4,4-trimethyl-2H-3,1-benzoxazine-1(4H)-carboxylate]",63 to 64 °C
8,"CC1Nc2ccc(-c3ccc(C#N)n3C)cc2C(C)(C)O1 (stereo not drawn) [Example 22, 1-Methyl-5-(2,4,4-trimethyl-1,4-dihydro-2H-3,1-benzoxazin-6-yl)-1H-pyrrole-2-carbonitrile]",195 to 196 °C
9,"CC1Nc2ccc(-c3csc(C#N)c3)cc2C2(CCCCC2)O1 (stereo not drawn) [Example 26, 4-(2-Methylspiro[2H-3,1-benzoxazine-4,1′-cyclohexane]-6-yl)2-thiophenecarbonitrile]",111 to 112 °C
10,"CC1Nc2ccc(-c3cccc(F)c3)cc2C(C)(C)O1 (stereo not drawn) [Example 27, 6-(3-Fluorophenyl)-2,4,4-trimethyl-1,4-dihydro-2H-3,1-benzoxazine]",139 to 140 °C
11,"CC1Nc2ccc(-c3ccc(F)c(Cl)c3)cc2C(C)(C)O1 (stereo not drawn) [Example 29, 6-(3-Chloro-4-fluorophenyl)-2,4,4-trimethyl-1,4-dihydro-2H-3,1-benzoxazine]",173 to 175 °C
12,"CC1Nc2ccc(-c3ccc(F)c(C#N)c3)cc2C(C)(C)O1 (stereo not drawn) [Example 30, 2-Fluoro-5-(2,4,4-trimethyl-1,4-dihydro-2H-3,1-benzoxazin-6-yl)benzonitrile]",184 to 186 °C
13,"CC1Nc2ccc(-c3coc(C#N)c3)cc2C(C)(C)O1 (stereo not drawn) [Example 31, 4-(2,4,4-Trimethyl-1,4-dihydro-2H-3,1-benzoxazin-6-yl)2-furonitrile]",116 to 118 °C
14,"CC1(C)OC(C(F)(F)F)Nc2ccc(-c3cc(F)cc(C#N)c3)cc21 (stereo not drawn) [Example 32, 3-[4,4-Dimethyl-2-(trifluoromethyl)-1,4-dihydro-2H-3,1-benzoxazin-6-yl]-5-fluorobenzonitrile]",102 to 103 °C
15,"Cc1cc(C#N)sc1-c1ccc2c(c1)C(C)(C)OC(C(F)(F)F)N2 (stereo not drawn) [Example 38, 5-[4,4-Dimethyl-2-(trifluoromethyl)-1,4-dihydro-2H-3,1-benzoxazin-6-yl]-4-methylthiophene-2-carbonitrile]",97 to 98 °C
16,"CC1(C)CC(=S)Nc2ccc(-c3cc(F)cc(C#N)c3)cc21 [Example 46, 3-(4,4-Dimethyl-2-thioxo-1,2,3,4-tetrahydroquinolin-6-yl)-5-fluorobenzonitrile]",240 to 242 °C (dec.)

# Test system: rat uterine decidualization
# Assay: Rat decidualization assay
# Format: in vivo
# Details: p.o.; half-maximal decrease in EC50 progesterone induced decidual response, rats
row,IC50,SMILES
1,0.21 mg/kg and 0.14 mg/kg,CC#C[C@]1(O)CC[C@H]2[C@@H]3CCC4=CC(=O)CCC4=C3[C@@H](c3ccc(N(C)C)cc3)C[C@@]21C [RU 486]

# Same assay, conditions: s.c.; half-maximal increase in decidual response (uterine wet weight), ovariectomized rats; individual studies
row,SMILES,EC50
1,C#C[C@]1(O)CC[C@H]2[C@@H]3CCC4=CC(=O)CC[C@@H]4[C@H]3C(=C)C[C@@]21CC [3-Ketodesogestrel],0.10 mg/kg and 0.06 mg/kg and 0.11 mg/kg
2,C#C[C@]1(O)CC[C@H]2[C@@H]3CCC4=CC(=O)CC[C@@H]4[C@H]3CC[C@@]21CC [Levonorgestrel],0.08 mg/kg and 0.12 mg/kg and 0.09 mg/kg (2×)

# Target: T1, human PR (Homo sapiens, UniProt P06401)
# T1 construct: expressed in transfected cells; host or cells: CV-1 cells (electroporated with pLEM-hPR-B and pGL3-2xPRE-luciferase)
# T1 sequence (P06401 1-933): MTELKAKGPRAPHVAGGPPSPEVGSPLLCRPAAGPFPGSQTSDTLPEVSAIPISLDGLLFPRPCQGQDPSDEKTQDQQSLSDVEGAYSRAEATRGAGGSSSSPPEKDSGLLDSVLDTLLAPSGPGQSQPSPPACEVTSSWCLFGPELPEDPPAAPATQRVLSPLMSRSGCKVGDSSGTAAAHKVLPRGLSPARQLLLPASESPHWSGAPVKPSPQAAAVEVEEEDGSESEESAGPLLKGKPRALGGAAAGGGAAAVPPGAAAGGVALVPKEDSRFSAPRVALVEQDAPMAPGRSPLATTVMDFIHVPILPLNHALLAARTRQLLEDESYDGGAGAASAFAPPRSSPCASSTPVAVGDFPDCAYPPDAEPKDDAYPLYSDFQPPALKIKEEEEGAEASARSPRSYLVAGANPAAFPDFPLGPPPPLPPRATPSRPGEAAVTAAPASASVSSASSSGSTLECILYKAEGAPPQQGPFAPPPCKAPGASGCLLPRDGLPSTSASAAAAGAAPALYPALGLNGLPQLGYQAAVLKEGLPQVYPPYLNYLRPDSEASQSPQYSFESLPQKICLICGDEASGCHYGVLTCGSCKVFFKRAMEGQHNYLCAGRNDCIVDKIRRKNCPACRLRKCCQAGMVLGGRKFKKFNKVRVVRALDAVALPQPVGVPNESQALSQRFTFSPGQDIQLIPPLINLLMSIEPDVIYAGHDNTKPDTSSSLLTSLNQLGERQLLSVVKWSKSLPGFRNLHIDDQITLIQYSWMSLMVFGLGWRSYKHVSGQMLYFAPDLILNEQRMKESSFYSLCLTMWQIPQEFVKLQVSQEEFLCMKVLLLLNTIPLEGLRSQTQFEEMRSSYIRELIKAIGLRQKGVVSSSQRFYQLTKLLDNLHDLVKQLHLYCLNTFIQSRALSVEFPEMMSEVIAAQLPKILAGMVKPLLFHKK
# Assay: PRE-luciferase assay in CV-1 cells
# Format: cell-based
# Details: CV-1 cells co-transfected with human PR and PRE-luciferase; decrease in 3 nM progesterone induced PRE-luciferase activity; read-out: hPR CV-1 IC50
row,IC50,SMILES
1,1680 nM,"CC1OC(C)(C)Nc2ccc(-c3cccc([N+](=O)[O-])c3)cc21 (stereo not drawn) [Compound 3, 6-(3-Nitro-phenyl)-2,2,4,-trimethyl-1,4-dihydro-2H-benzo[d][1,3]oxazine]"

# Same assay, conditions: read-out: hPR CV-1 IC50
row,IC50,SMILES
1,50 nM,"CC1(C)OC(C)(C(F)(F)F)Nc2ccc(-c3cccc(Cl)c3)cc21 (stereo not drawn) [Compound 2, 6-(3-Chloro-phenyl)-2,4,4-trimethyl-2-trifluoromethyl-1,4-dihydro-2H-benzo[d][1,3]oxazine]"
